From PMC5071162 (ACS chemical neuroscience, 2016)

What was measured:
[1] = system: P-glycoprotein; details: reported; cited from earlier work
[2] = system: GPR88; details: HTRF cAMP assay; ref 13 (Bi et al.); cited from earlier work
[3] = target: human GPR88 (Homo sapiens, UniProt Q9GZN0); assay: Lance cAMP assay using stable PPLS-HA-GPR88 CHO cells; format: cell-based
human GPR88, sequence (Q9GZN0 whole entry): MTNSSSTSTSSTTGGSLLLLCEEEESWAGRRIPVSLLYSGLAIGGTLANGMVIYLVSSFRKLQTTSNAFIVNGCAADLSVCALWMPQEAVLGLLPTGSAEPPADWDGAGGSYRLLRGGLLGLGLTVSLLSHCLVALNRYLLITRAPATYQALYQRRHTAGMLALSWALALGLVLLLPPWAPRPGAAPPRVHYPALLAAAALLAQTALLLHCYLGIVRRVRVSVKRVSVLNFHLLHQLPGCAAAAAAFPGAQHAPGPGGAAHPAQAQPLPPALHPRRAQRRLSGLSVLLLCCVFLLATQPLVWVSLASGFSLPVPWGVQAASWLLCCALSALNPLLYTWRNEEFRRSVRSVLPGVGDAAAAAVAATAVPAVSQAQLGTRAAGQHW

## CCCc1ccc(-c2ccc(N(C[C@@H](N)[C@@H](C)CC)C(=O)[C@@H]3C[C@H]3c3ccccn3)cc2)cc1 (relative stereo) [compound 1, (1R*,2R*)-2-(pyridin-2-yl)-cyclopropanecarboxylic acid ((2S,3S)-2-amino-3-methylpentyl)-(4′-propylbiphenyl-4-yl)-amide]
[1]
  P-glycoprotein substrate: P-glycoprotein substrate

## CC[C@H](C)[C@H](N)CN(C(=O)[C@@H]1C[C@H]1c1ccccn1)c1ccc(-c2ccc(N)cc2)cc1 (relative stereo) [5w, (1R*,2R*)-2-(Pyridin-2-yl)cyclopropanecarboxylic Acid [(2S,3S)-2-Amino-3-methylpentyl]-(4′-aminobiphenyl-4-yl)amide]
[3]; EC50
  EC50: 1120 nM
[3]; qualitative SAR statement, Lance cAMP assay
  agonist activity in words: significant decrease in activity
